Source: US8614327B2 (Vertex Pharmaceuticals Incorporated, priority 2004, dated 2013)

Target: T1, ΔF508-CFTR (Homo sapiens, UniProt P13569, DEL508-508)
T1 construct: expressed in transfected cells
Test: Membrane potential optical (FRET/VIPR) assay, identification of potentiator compounds
Format: cell-based
Settings: Table 3, assay not given; for % Activity: relative efficacy
Outline: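 NIH3T3 mouse fibroblasts stably expressing ΔF508-CFTR, temperature-corrected 24 h at 27° C., read on VIPR by FRET between CC2-DMPE and DiSBAC2(3). Potentiators identified in a double-addition format, first adding chloride-free (gluconate) medium with or without compound.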

T1 sequence (P13569 with tags, fused parts or gaps DEL508-508): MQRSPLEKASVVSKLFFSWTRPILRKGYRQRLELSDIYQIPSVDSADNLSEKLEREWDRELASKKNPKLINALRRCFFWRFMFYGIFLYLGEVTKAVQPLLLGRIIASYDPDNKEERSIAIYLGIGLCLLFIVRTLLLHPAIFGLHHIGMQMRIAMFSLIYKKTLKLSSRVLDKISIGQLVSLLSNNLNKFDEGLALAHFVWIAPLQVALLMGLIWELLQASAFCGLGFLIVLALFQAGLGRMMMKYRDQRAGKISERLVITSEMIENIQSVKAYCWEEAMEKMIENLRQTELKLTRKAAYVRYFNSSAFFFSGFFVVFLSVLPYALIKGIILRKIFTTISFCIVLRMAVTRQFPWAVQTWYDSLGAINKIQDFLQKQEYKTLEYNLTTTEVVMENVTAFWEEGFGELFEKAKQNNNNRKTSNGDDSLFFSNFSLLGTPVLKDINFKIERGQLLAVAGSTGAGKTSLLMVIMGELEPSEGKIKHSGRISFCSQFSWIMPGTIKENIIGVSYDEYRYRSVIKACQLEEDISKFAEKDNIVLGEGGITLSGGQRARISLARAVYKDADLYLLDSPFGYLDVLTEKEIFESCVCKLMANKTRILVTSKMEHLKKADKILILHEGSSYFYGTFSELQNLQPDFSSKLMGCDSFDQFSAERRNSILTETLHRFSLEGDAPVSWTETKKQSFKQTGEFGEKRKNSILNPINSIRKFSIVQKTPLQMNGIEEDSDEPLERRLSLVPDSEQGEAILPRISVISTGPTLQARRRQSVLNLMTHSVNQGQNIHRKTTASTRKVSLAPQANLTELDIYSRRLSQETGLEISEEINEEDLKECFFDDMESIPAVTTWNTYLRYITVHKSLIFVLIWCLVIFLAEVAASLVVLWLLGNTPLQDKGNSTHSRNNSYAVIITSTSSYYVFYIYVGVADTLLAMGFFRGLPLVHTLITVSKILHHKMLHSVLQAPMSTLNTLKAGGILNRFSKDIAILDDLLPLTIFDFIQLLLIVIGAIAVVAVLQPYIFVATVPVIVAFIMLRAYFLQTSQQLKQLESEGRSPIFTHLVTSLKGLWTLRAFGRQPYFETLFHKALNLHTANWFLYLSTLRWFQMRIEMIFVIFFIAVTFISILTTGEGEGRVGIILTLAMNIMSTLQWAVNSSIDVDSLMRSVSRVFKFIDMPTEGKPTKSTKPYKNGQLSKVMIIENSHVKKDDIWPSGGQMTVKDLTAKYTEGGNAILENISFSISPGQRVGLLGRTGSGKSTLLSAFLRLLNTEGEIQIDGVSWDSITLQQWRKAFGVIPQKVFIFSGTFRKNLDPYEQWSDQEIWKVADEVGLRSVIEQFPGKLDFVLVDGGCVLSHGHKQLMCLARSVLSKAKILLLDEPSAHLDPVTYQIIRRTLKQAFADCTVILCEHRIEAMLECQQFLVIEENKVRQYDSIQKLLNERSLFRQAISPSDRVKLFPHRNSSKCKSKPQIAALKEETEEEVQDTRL

Row | Structure (SMILES) | EC50 [µM] | % Activity
1 | O=C(Nc1ccccc1-c1cccc(C(F)(F)F)c1)c1c[nH]c2ccccc2c1=O [Compound 278, 4-oxo-N-[2-[3-(trifluoromethyl)phenyl]phenyl]-1H-quinoline-3-carboxamide] | < 10 | ++ (between 25% to 100%)
2 | CSc1ccccc1-c1ccccc1NC(=O)c1c[nH]c2ccccc2c1=O [Compound 279, N-[2-(2-methylsulfanylphenyl)phenyl]-4-oxo-1H-quinoline-3-carboxamide] | – | ++ (between 25% to 100%)
3 | O=C(Nc1ccc2ncccc2c1)c1c[nH]c2ccccc2c1=O [Compound 280, 4-oxo-N-(6-quinolyl)-1H-quinoline-3-carboxamide] | 25 to 60 | + (<25%)
4 | Cc1ccc(NC(=O)c2c[nH]c3ccccc3c2=O)c(C)c1 [Compound 281, N-(2,4-dimethylphenyl)-4-oxo-1H-quinoline-3-carboxamide] | < 10 | ++ (between 25% to 100%)
5 | CCc1ccc(N)cc1NC(=O)c1c[nH]c2ccccc2c1=O [Compound 282, N-(5-amino-2-ethyl-phenyl)-4-oxo-1H-quinoline-3-carboxamide] | – | ++ (between 25% to 100%)
6 | COc1cccc(-c2ccccc2NC(=O)c2c[nH]c3ccccc3c2=O)c1 [Compound 283, N-[2-(3-methoxyphenyl)phenyl]-4-oxo-1H-quinoline-3-carboxamide] | < 10 | +++ (>100%)
7 | O=C(Nc1ccc2cn[nH]c2c1)c1c[nH]c2ccccc2c1=O [Compound 284, N-(1H-indazol-6-yl)-4-oxo-1H-quinoline-3-carboxamide] | 10 to 25 | ++ (between 25% to 100%)
8 | O=C(Nc1ccccc1-c1cccc(F)c1F)c1c[nH]c2ccccc2c1=O [Compound 285, N-[2-(2,3-difluorophenyl)phenyl]-4-oxo-1H-quinoline-3-carboxamide] | < 10 | ++ (between 25% to 100%)
9 | O=C(Nc1cccc2c1CCCC2)c1c[nH]c2ccccc2c1=O [Compound 286, 1,4-dihydro-N-(1,2,3,4-tetrahydronaphthalen-5-yl)-4-oxoquinoline-3-carboxamide] | < 10 | +++ (>100%)
10 | CC1(c2cc(F)c(NC(=O)c3c[nH]c4cccc(O)c4c3=O)cc2O)CCCCC1 [Compound 287, N-[2-fluoro-5-hydroxy-4-(1-methylcyclohexyl)-phenyl]-5-hydroxy-4-oxo-1H-quinoline-3-carboxamide] | < 10 | ++ (between 25% to 100%)
11 | COC(=O)Oc1c(NC(=O)c2c[nH]c3ccccc3c2=O)cc(F)cc1C(C)(C)C [Compound 288, N-(5-fluoro-2-methoxycarbonyloxy-3-tert-butyl-phenyl)-4-oxo-1H-quinoline-3-carboxamide] | < 10 | ++ (between 25% to 100%)
12 | Cc1ccc(NC(=O)c2c[nH]c3ccccc3c2=O)c(F)c1 [Compound 289, N-(2-fluoro-4-methyl-phenyl)-4-oxo-1H-quinoline-3-carboxamide] | < 10 | ++ (between 25% to 100%)
13 | CC(C)c1cccc(-c2ccccc2NC(=O)c2c[nH]c3ccccc3c2=O)c1 [Compound 290, N-[2-(3-isopropylphenyl)phenyl]-4-oxo-1H-quinoline-3-carboxamide] | < 10 | ++ (between 25% to 100%)
14 | CC(C)(C)c1cc(Cl)c(NC(=O)c2c[nH]c3ccccc3c2=O)cc1O [Compound 291, N-(2-chloro-5-hydroxy-4-tert-butyl-phenyl)-4-oxo-1H-quinoline-3-carboxamide] | – | ++ (between 25% to 100%)
15 | O=C(Nc1cc(Cl)ccc1Oc1ccccc1)c1c[nH]c2ccccc2c1=O [Compound 292, N-(5-chloro-2-phenoxy-phenyl)-4-oxo-1H-quinoline-3-carboxamide] | < 10 | ++ (between 25% to 100%)
16 | O=C(Nc1ccccc1-n1cccc1)c1c[nH]c2ccccc2c1=O [Compound 293, 4-oxo-N-[2-(1H-pyrrol-1-yl)phenyl]-1H-quinoline-3-carboxamide] | 10 to 25 | +++ (>100%)
17 | O=C(Nc1ccc2[nH]ccc2c1)c1c[nH]c2ccccc2c1=O [Compound 294, N-(1H-indol-5-yl)-4-oxo-1H-quinoline-3-carboxamide] | 10 to 25 | ++ (between 25% to 100%)
18 | O=C(Nc1ccccc1N1CCCC1)c1c[nH]c2ccccc2c1=O [Compound 295, 4-oxo-N-(2-pyrrolidin-1-ylphenyl)-1H-quinoline-3-carboxamide] | < 10 | ++ (between 25% to 100%)
19 | COc1nc2ccccc2c(OC)c1C(=O)Nc1ccccc1C(C)(C)C [Compound 296, 2,4-dimethoxy-N-(2-tert-butylphenyl)-quinoline-3-carboxamide] | 10 to 25 | ++ (between 25% to 100%)
20 | Cc1ccc(C)n1-c1ccccc1NC(=O)c1c[nH]c2ccccc2c1=O [Compound 297, N-[2-(2,5-dimethyl-1H-pyrrol-1-yl)phenyl]-4-oxo-1H-quinoline-3-carboxamide] | < 10 | ++ (between 25% to 100%)
21 | CCOC(=O)Nc1cc(NC(=O)c2c[nH]c3ccccc3c2=O)ccc1CC [Compound 298, [2-ethyl-5-[(4-oxo-1H-quinolin-3-yl)carbonylamino]phenyl]aminoformic acid ethyl ester] | – | ++ (between 25% to 100%)
22 | O=C(Nc1ccc2c(c1)NCCC2)c1c[nH]c2ccccc2c1=O [Compound 299, 4-Oxo-N-(1,2,3,4-tetrahydroquinolin-7-yl)-1H-quinoline-3-carboxamide] | < 10 | ++ (between 25% to 100%)
23 | CC1(C)CCNc2cc(NC(=O)c3c[nH]c4ccccc4c3=O)ccc21 [Compound 300, N-(4,4-Dimethyl-1,2,3,4-tetrahydroquinolin-7-yl)-4-oxo-1H-quinoline-3-carboxamide] | < 10 | ++ (between 25% to 100%)
24 | Cn1cnnc1-c1ccc(NC(=O)c2c[nH]c3ccccc3c2=O)cc1 [Compound 301, N-[4-(4-methyl-4H-1,2,4-triazol-3-yl)phenyl]-4-oxo-1H-quinoline-3-carboxamide] | 25 to 60 | + (<25%)
25 | O=C(Nc1ccccc1-c1ccc(CO)cc1)c1c[nH]c2ccccc2c1=O [Compound 302, N-[2-[4-(hydroxymethyl)phenyl]phenyl]-4-oxo-1H-quinoline-3-carboxamide] | 10 to 25 | ++ (between 25% to 100%)
26 | CC(=O)N1CCc2ccc(NC(=O)c3c[nH]c4ccccc4c3=O)cc2C1 [Compound 303, N-(2-acetyl-1,2,3,4-tetrahydroisoquinolin-7-yl)-4-oxo-1H-quinoline-3-carboxamide] | 10 to 25 | ++ (between 25% to 100%)
